Reference: article PMC9986306, “Beyond CBD: Inhibitory effects of lesser studied phytocannabinoids on human voltage-gated sodium channels” (Frontiers in Physiology, 2023)
Marks after values point to notes of the source that are not given here.

What was measured:
[1] = molecular target: T1, human NaV1.7 channel (SCN9A, CHO cells) (Homo sapiens, UniProt Q15858); assay: Planar patch-clamp, inhibition of peak sodium current (IC50 protocol); format: cell-based; conditions: for Effect on peak sodium current (in words): NaV1.7, 0.1–100 μM, no maximal inhibition at 100 µM
T1 construct: expressed in transfected cells
Method: (§1) HEK293T cells stably expressing SCN1A or SCN2A and CHO cells stably expressing SCN8A or SCN9A were maintained as previously described ([Richards et al., 2018]; [Milligan et al., 2022]).
(§2) Patch-clamp recordings were made using a Patchliner® (Nanion Technologies, Munich, Germany) in the whole-cell configuration as previously described ([Richards et al., 2018]; [Milligan et al., 2022]). Briefly, cells were prepared in suspension at a density of 1 × 10^6-5 × 10^7 cells/mL. The external recording solution comprised (in mM): 140 NaCl, 4 KCl, 1 MgCl2, 2 CaCl2, 5 D-glucose, 10 HEPES, pH 7.4 with NaOH, ∼295 mOsm. The internal recording solution comprised (in mM): 50 CsCl, 60 CsF, 10 NaCl, 20 EGTA, 10 HEPES, pH 7.2 with CsOH, ∼285 mOsm. Medium single-hole planar NPC-16 chips with an average resistance of ∼2.5 MΩ were used. Chip and whole-cell capacitance were fully compensated, and 50% series resistance compensation applied. Recordings were acquired at 50 kHz with the low pass filter set to 10 kHz in PATCHMASTER (HEKA Instruments, NY, United States) and performed at 27°C. Offline analysis was performed using Microsoft Excel, MatLab R2019a (MathWorks) and GraphPad Prism 8 (Molecular Devices).
(§3) To determine half-maximal inhibitory concentrations (IC50), cells were held at −80 mV, stepped to −120 mV for 200 ms followed by 50 ms test depolarization to 0 mV every 2 s for 30 s in the presence of vehicle control (DMSO). The cells were then exposed to an individual phytocannabinoid (CBD, CBGA, CBDVA, CBG, CBCA or CBC) at concentrations between 0.1 and 100 μM, sequentially for 5 min. Currents for individual cells were averaged over 24 s periods directly before application and following a 5 min exposure of compound. Leak subtraction was applied before normalization of current amplitude. Normalized mean data were fit to the Hill equation.

[2] = molecular target: T2, human NaV1.6 channel (SCN8A, CHO cells) (Homo sapiens, UniProt Q9UQD0); assay: as above; format: cell-based; conditions: for Effect on peak sodium current (in words): NaV1.6, 0.1–100 μM, no maximal inhibition at 100 µM
T2 construct: expressed in transfected cells
Method: as §1, §2, §3

[3] = molecular target: T3, human NaV1.1 channel (SCN1A, HEK293T cells) (Homo sapiens, UniProt P35498); assay: as above; format: cell-based; conditions: NaV1.1; 0.1–100 μM, no maximal inhibition at 100 µM
T3 construct: expressed in transfected cells
Method: as §1, §2, §3

[4] = molecular target: T4, human NaV1.2 channel (SCN2A, HEK293T cells) (Homo sapiens, UniProt Q99250); assay: as above; format: cell-based; conditions: for Effect on peak sodium current (in words): NaV1.2, 0.1–100 μM, no maximal inhibition at 100 µM
T4 construct: expressed in transfected cells
Method: as §1, §2, §3

[5] = test system: Scn1a+/− mouse model of DS; set-up: method as in Anderson et al., 2021a; Anderson et al., 2021b; conditions: Scn1a+/− mice, ref Anderson et al., 2021a, 2021b; cited from earlier work
[6] = molecular target: T1, human NaV1.7 channel (SCN9A, CHO cells); assay: Planar patch-clamp, biophysical properties (activation, SSFI, recovery from SSFI); format: cell-based; conditions: change vs vehicle DMSO at IC50 concentration (CBD 11.9 μM, CBGA 16.4 μM, CBDVA 60 μM)
Method: as §1, §2
(§4) Voltage protocols were used, as previously described ([Richards et al., 2018]). Briefly, to study the voltage-dependence of activation, cells were held at −120 mV and depolarized to test potentials, in 5 mV increments, between −120 mV and +50 mV for 100 ms. To study steady-state fast inactivation, cells were held at conditioning pre-pulse potentials ranging from −120 mV to +30 mV in 5 mV increments from a holding potential of −120 mV and a test pulse at 5 mV for 20 ms. Recovery from fast inactivation was studied by pre-pulsing the cells to 0 mV from a holding potential of −120 mV for 50 ms, to fully inactivate channels. The voltage was then stepped back to the holding potential for variable interpulse intervals (ipi from 0 to 39 ms in 3 ms increments). To test channel availability, the voltage was stepped to 0 mV for 50 ms.
(§5) To examine the voltage-dependence of activation, normalized current-voltage (I-V) relationships were converted to conductance (G) using the following equation: G = I/(V−V r ) where Vr is the reversal potential for Na^+. The voltage-dependence of conductance and availability were normalized and fitted to a Boltzmann equation: G = 1/(1 + exp [(V−V 0.5)/a]), where a is the slope of the half-maximum, V is the potential of the given pulse, and V 0.5 is the potential for the half-maximal activation/inactivation. The time course of inactivation was fitted to a single exponential function I/Imax = I0+A*exp (-t-t0/τ)+C, where I0 is the non-inactivating component, Imax is the peak current, t is time, and A is the component for the time constant τ. Time constants were plotted against voltage and the data fitted with a decaying exponential equation Y = span*exp (−K*x)+plateau, where span is the starting point of the curve, K is the decay factor, plateau is the value the curve decays to, and x is time. To measure recovery from inactivation, normalized currents were plotted against ipi and data fitted with equation I/I max = 1-exp/(rc + x), where I max is maximal current; rc recovery rate constant; x is time. Peak current (I) was plotted as fractional recovery against the recovery period by normalizing to the maximum current (Imax) during the conditioning potentials.

[7] = molecular target: T2, human NaV1.6 channel (SCN8A, CHO cells); assay: as above; format: cell-based; conditions: change vs vehicle DMSO at IC50 concentration (CBD 16.6 μM, CBGA 12.0 μM, CBDVA 24.1 μM)
Method: as §1, §2, §4, §5

[8] = molecular target: T3, human NaV1.1 channel (SCN1A, HEK293T cells); assay: as above; format: cell-based; conditions: change vs vehicle DMSO at IC50 concentration (CBD 18.5 μM, CBGA 13.6 μM, CBDVA 50 μM)
Method: as §1, §2, §4, §5

[9] = molecular target: T4, human NaV1.2 channel (SCN2A, HEK293T cells); assay: as above; format: cell-based; conditions: change vs vehicle DMSO at IC50 concentration (CBD 18.4 μM, CBGA 14.7 μM, CBDVA 60 μM)
Method: as §1, §2, §4, §5

[10] = set-up: method as in Anderson et al., 2019b; conditions: CBDVA; ref Anderson et al., 2019b; cited from earlier work
[11] = test system: electrically induced seizure model; set-up: method as in Davis and Hatoum, 1983; conditions: ref Davis and Hatoum, 1983; cited from earlier work
[12] = test system: sodium channels; set-up: method as in Hill et al., 2014; Ghovanloo et al., 2022; conditions: different voltage protocols or model systems; ref Hill et al., 2014; Ghovanloo et al., 2022; read-out: IC50 (low affinity inhibitor of sodium channels); cited from earlier work
[13] = test system: PTZ-induced acute seizure model; set-up: method as in Hill et al., 2014; conditions: ref Hill et al., 2014; cited from earlier work

T1 sequence (Q15858 whole entry): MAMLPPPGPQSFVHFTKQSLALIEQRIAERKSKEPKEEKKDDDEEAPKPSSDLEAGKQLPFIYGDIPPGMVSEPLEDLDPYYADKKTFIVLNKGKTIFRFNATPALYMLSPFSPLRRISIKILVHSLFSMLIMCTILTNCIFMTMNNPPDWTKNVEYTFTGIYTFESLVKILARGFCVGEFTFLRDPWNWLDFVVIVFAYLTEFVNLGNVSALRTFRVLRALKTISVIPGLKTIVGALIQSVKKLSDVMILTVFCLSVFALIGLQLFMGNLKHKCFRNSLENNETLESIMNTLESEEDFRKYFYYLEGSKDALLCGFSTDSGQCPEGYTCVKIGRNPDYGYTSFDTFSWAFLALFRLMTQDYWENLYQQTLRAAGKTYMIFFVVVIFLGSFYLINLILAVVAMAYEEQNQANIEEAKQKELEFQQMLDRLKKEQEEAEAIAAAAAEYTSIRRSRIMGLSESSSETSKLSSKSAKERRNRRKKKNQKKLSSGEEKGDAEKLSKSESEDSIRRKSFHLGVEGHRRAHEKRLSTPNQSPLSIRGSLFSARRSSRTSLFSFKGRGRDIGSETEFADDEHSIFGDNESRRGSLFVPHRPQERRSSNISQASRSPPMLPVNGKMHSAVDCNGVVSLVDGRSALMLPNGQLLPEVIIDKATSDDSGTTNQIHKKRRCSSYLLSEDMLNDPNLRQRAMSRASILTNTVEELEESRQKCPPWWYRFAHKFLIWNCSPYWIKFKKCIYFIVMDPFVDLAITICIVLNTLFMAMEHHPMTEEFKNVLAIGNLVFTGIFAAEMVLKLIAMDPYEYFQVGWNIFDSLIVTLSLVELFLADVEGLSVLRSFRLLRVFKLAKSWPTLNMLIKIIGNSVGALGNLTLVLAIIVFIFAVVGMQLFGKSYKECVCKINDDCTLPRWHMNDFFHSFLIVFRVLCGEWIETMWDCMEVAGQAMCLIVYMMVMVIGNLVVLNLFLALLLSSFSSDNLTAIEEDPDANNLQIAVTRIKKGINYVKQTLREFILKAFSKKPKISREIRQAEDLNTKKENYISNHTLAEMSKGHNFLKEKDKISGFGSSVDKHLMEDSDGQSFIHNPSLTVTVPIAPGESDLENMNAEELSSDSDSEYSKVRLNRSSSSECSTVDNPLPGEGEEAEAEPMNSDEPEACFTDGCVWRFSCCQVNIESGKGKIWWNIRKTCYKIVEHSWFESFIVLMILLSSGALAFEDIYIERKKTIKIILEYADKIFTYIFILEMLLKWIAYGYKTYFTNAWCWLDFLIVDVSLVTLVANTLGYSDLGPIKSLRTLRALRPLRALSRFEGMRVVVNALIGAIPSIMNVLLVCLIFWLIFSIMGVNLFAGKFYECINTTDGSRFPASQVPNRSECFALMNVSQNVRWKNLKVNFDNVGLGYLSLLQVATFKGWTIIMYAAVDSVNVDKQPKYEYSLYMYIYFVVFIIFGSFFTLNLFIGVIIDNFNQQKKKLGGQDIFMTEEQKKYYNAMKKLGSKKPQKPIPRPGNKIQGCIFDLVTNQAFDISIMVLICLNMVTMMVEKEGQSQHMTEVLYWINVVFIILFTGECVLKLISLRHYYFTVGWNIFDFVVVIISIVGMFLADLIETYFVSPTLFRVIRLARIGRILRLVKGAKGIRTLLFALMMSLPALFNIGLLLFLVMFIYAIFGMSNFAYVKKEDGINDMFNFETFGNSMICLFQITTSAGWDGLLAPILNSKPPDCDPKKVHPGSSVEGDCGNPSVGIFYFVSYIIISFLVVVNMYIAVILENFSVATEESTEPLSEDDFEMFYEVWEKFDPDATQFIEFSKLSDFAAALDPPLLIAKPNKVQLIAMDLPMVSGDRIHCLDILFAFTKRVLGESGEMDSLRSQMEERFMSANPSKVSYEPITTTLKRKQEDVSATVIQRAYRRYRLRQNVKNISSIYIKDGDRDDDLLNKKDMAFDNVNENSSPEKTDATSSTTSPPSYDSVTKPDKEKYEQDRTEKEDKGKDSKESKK
T4 sequence (Q99250 whole entry): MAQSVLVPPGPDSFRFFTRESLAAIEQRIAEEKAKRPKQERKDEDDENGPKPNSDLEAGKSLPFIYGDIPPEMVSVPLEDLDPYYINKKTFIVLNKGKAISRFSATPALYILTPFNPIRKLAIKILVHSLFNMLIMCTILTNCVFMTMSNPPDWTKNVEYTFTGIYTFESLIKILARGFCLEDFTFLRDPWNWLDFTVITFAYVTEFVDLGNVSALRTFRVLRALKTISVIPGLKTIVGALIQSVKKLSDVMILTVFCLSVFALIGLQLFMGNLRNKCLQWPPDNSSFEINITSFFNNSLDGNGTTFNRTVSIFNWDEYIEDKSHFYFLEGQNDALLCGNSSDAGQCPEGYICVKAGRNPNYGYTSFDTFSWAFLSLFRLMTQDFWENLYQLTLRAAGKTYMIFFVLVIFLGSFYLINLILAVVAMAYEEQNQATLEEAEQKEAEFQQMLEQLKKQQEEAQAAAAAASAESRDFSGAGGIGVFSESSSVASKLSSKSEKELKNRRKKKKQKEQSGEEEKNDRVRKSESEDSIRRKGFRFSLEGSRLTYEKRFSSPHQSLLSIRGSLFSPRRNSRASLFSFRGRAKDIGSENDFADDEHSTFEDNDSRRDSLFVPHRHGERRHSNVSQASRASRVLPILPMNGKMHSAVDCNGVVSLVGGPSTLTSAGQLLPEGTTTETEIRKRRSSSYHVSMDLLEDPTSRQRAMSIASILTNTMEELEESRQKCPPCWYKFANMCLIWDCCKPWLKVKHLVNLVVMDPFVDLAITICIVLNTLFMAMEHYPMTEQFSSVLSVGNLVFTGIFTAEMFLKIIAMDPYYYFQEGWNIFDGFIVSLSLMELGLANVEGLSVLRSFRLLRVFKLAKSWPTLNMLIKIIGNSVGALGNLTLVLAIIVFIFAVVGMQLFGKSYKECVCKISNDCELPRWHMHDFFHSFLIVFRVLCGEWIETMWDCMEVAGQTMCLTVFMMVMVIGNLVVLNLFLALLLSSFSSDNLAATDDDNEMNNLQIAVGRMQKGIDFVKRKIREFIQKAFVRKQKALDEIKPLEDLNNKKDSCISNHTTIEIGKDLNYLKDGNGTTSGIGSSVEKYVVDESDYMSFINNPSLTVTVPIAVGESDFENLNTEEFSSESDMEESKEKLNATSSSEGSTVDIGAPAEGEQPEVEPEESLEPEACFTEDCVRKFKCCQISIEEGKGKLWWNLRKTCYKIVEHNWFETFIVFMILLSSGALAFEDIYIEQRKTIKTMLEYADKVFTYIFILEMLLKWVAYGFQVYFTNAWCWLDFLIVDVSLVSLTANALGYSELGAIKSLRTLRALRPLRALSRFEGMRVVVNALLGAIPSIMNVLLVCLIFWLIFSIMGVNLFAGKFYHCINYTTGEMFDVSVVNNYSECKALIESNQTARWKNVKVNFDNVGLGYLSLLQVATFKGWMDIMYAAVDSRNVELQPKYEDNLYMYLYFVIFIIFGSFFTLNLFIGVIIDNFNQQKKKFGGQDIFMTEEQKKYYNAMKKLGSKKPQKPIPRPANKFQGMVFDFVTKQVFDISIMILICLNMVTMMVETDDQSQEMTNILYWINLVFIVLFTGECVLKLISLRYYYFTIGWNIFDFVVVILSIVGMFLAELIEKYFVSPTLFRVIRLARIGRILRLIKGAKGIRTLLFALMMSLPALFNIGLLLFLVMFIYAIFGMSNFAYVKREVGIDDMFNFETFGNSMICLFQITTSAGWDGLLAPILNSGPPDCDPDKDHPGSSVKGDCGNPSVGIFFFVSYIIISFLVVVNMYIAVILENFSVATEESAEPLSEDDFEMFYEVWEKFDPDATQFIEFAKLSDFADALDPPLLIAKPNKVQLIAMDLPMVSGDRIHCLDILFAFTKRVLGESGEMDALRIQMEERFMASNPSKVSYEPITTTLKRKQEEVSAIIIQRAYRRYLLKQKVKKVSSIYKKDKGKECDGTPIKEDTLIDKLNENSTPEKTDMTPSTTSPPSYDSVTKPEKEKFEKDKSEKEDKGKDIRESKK

CCCCCc1cc2c(c(O)c1C(=O)O)C=CC(C)(CCC=C(C)C)O2 (centres unmarked) [CBCA, cannabichromenic acid]
Effect on peak sodium current (in words) [1]: modestly inhibited | Effect on peak sodium current (in words) [2]: modestly inhibited | Effect on peak sodium current (in words) [3]: modestly inhibited | Effect on peak sodium current (in words) [4]: modestly inhibited | Effect against hyperthermia-induced seizures [5]: anti-convulsant properties

C=C(C)[C@@H]1CCC(C)=C[C@H]1c1c(O)cc(CCC)c(C(=O)O)c1O [CBDVA, cannabidivarinic acid]
Inactivation △ V0.5 inact ([6]; SSFI): −4.1 ± 0.9*** mV | Inactivation △ slope factor ([6]; SSFI): 1.6 ± 0.3**** | Activation △ Slope factor [6]: 0.9 ± 0.2*** | Activation △ V0.5 act [6]: 8.7 ± 1.8*** mV | Inactivation △ τinact SSFI at 5 mV [6]: 0.3 ± 0.07** | Inactivation △ V0.5 inact ([7]; SSFI): −3.0 ± 1.3* mV | Inactivation △ slope factor ([7]; SSFI): 0.5 ± 0.3 | Activation △ Slope factor [7]: 1.9 ± 0.7* | Activation △ V0.5 act [7]: 10.4 ± 2.9** mV | Inactivation △ τinact SSFI at 5 mV [7]: 0.3 ± 0.09** | Inactivation △ V0.5 inact ([8]; SSFI): −10.1 ± 2.3** mV | Inactivation △ slope factor ([8]; SSFI): 1.8 ± 0.3*** | Activation △ Slope factor [8]: 1.7 ± 0.4*** | Activation △ V0.5 act [8]: 13.0 ± 1.6**** mV | Inactivation △ τinact SSFI at 5 mV [8]: 0.4 ± 0.05**** | Inactivation △ V0.5 inact ([9]; SSFI): −2.3 ± 1.5 mV | Inactivation △ slope factor ([9]; SSFI): 1.0 ± 0.2*** | Activation △ Slope factor [9]: 0.9 ± 0.2**** | Activation △ V0.5 act [9]: 11.5 ± 1.5**** mV | Inactivation △ τinact SSFI at 5 mV [9]: 0.4 ± 0.06**** | Effect on peak sodium current (in words) [1]: only partially inhibited | IC50 ([1]; NaV1.7 peak current, 0.1–100 µM, 5 min exposure, mean ± SEM): ≥ 60 µM | Slope (Hill slope coefficient) ([2]; NaV1.6 concentration-response, mean ± SEM): 2.1 ± 0.5 | IC50 ([2]; NaV1.6 peak current, 0.1–100 µM, 5 min exposure, mean ± SEM): 24.1 ± 1.2 µM | Effect on peak sodium current (in words) [3]: only partially inhibited | Effect on peak sodium current (in words) [4]: only partially inhibited | IC50 ([4]; NaV1.2 peak current, 0.1–100 µM, 5 min exposure, mean ± SEM): ≥ 60 µM | Effect against hyperthermia-induced seizures [5]: anti-convulsant properties | Estimated brain concentration attained at anti-convulsant doses [10]: 5.5 µM

CCCCCc1cc(O)c2c(c1)OC(C)(CCC=C(C)C)C=C2 (centres unmarked) [CBC, cannabichromene]
Effect on peak sodium current (in words) [1]: modestly inhibited | Effect on peak sodium current (in words) [2]: modestly inhibited | Effect on peak sodium current (in words) [3]: modestly inhibited | Effect on peak sodium current (in words) [4]: modestly inhibited | Effect in electrically induced seizure model [11]: ineffective | Effect against hyperthermia-induced seizures [5]: anti-convulsant properties

CCCCCc1cc(O)c(C/C=C(\C)CCC=C(C)C)c(O)c1 [CBG, cannabigerol]
IC50 [12]: 2 to 22 µM | Effect on peak sodium current (in words) [1]: modestly inhibited | Effect on peak sodium current (in words) [2]: modestly inhibited | Effect on peak sodium current (in words) [3]: modestly inhibited | Effect on peak sodium current (in words) [4]: modestly inhibited | Effect against hyperthermia-induced seizures [5]: ineffective | Anti-convulsant effect in PTZ-induced acute seizure model [13]: ineffective
